“And” between values parts separate entries of the source, which are not always exact repeats. Equal values may be shown once. Read-outs that look alike come from different tables or passages of the source.
Tests used:
rats [1] = assay: Open field (OF) test in rats, locomotor/exploratory activity; format: in vivo, rat; details: 2.5 mg/kg i.p. 30 min before test, 5-min session, mean ± SEM, 2.5 mg/kg
Procedure: All drugs were dissolved in distilled water immediately before administration in a volume of 2 mL/kg. All the compounds were administered intraperitoneally (i.p.). […] Control animals received vehicle according to the same schedule.
The experiment was performed using Motor Monitor System (Campden Instruments, Ltd., UK) consisted of two SmartFrame Open Field stations (40 × 40 × 38 cm) with 16 × 16 beams, located in sound attenuating chambers and connected to PC software by control chassis. Individual vehicle- or drug-injected animals were gently placed in the center of the station. An automated motor monitor system recorded ambulation (the number of crossings in X and Y axis), the number of rearing episodes, and total distance covered by a rat for 5 min.
The data of behavioral studies were evaluated using two-way analysis of variance (ANOVA) followed by Bonferroni’s post hoc test, p < 0.05 was considered significant.

[2] = Pharmacokinetic study in rats, plasma (LC/MS/MS, non-compartmental); format: in vivo, rat; details: for Vd/F / AUC(0-t) / CL/F / Cmax / MRT / half-life / Tmax: rat, plasma
Procedure: Blood samples were collected at 0 min (predose), 5 min, 15 min, 30 min, 60 min, 120 min, and 240 min after injections. The blood was collected from right ventricle under anesthesia using a mixture of ketamine (50 mg/kg)/xylasine (8 mg/kg) in the ratio of 3:1, and 0.025 mL of a mixture for 10 g body weight was injected i.p. 10 min before planned blood collection. Blood and brain samples were collected under general anesthesia induced by i.p. injections of ketamine (50 mg/kg)/xylasine (8 mg/kg). The blood samples were taken into heparinized tubes, immediately centrifuged at 3500 rpm for 10 min, and plasma was collected. After the blood was drawn, the rat’s spinal cord was cut and the cerebral tissue was removed, and after dissection washed in PBS saline. The brain and plasma samples were immediately frozen at − 80 °C for LC/MS/MS analysis.
Pharmacokinetic parameters were calculated by a non-compartmental approach from the average concentration values, using Phoenix WinNonlin software (Certara, Princeton, NJ 08540 USA). First order elimination rate constant (λz) was calculated by linear regression of time versus log concentration.
The quantification of studied compounds in plasma and brain samples was done using HPLC Agilent 1100 system (Agilent Technologies, Waldbronn, Germany) coupled to the triple quadrupole mass spectrometer API 2000 (ABSciex, Framingham, Massachusetts, USA) equipped with an electrospray ion source. After preparation, the samples were injected (20 μL) onto XBridge C18 (2.1 mm × 30 mm, 3.5 μm, Waters, Milford, Massachusetts, USA) analytical column. The mobile phase consisted of ACN with 0.1% formic acid (A) and water with 0.1% formic acid (B) were delivered in gradient elution started with 90% of eluent B, increasing during 2 min to 90% of eluent A, maintained to 3 min, and then returned during 5 min to 90% of eluent B, and maintained 90% of eluent B during 5 min at a flow rate of 300 μL/min. The total time of analysis was 15 min. Electrospray ionization process was performed in positive ionization and the data acquisition was carried out in multiple reaction monitoring mode (MRM) for EMD386088 and its internal standard (nebivolol). The ion spray source settings were as follows: spray voltage: 5 kV, heater temperature: 350 °C, curtain gas: 15 psi, source gas 1: 35 psi, source gas 2: 10 psi. The ions measured were m/z 247.3 (Q1) and m/z 168.2 (Q3) for EMD386088, and m/z 406.2 (Q1) and m/z 151.1 (Q3) for IS.
A sample volume of 50 μL of plasma or brain homogenate was transferred into the clean Eppendorf tube and spiked with 5 μL of IS solution (1 μg/mL) obtaining the final concentration of 100 ng/mL. After 5 min of mixing (1500 rpm), proteins were precipitated using 150 μL ACN. After 10 min of samples shaking (1500 rpm), the incubation step was performed (10 min, 4 °C). Next, samples were centrifuged (10,000 rpm, 10 min, 4 °C) and the supernatant was transferred into chromatographic vial for LC/MS/MS analysis. The brain homogenate was prepared maintaining the tissue: phosphate-buffered saline (PBS) at a ratio of 1:5. The homogenization was carried out employing IKA® T10 Basic ULTRA-TURRAX disperser (IKA Werke GmbH & Co. KG, Staufen, Germany). After homogenization, 50 μL of sample was collected for further preparation. All samples were stored on ice during the preparation process.

rats [3] = test system: rats; set-up: method as in Jastrzębska-Więsek et al. [2015]; details: EMD386088 alone 5 mg/kg i.p., ref Jastrzębska-Więsek et al. [2015]; cited from earlier work
α1-adrenoceptors = test system: α1-adrenoceptors; set-up: method as in Jastrzębska-Więsek et al. [2013]; details: ref Jastrzębska-Więsek et al. [2013]; cited from earlier work
α2-adrenoceptors = test system: α2-adrenoceptors; set-up: method as in Jastrzębska-Więsek et al. [2013]; details: ref Jastrzębska-Więsek et al. [2013]; cited from earlier work
β1-adrenoceptors = test system: β1-adrenoceptors; set-up: method as in Jastrzębska-Więsek et al. [2013]; details: ref Jastrzębska-Więsek et al. [2013]; cited from earlier work
dopamine D3 = test system: dopamine D3; set-up: method as in Jastrzębska-Więsek et al. [2013]; details: ref Jastrzębska-Więsek et al. [2013]; cited from earlier work
GABAA = test system: GABAA; set-up: method as in Jastrzębska-Więsek et al. [2013]; details: ref Jastrzębska-Więsek et al. [2013]; cited from earlier work
[4] = test system: dopamine transporter (DAT); set-up: method as in Jastrzębska-Więsek et al. [2016]; details: functional in vitro study; ref Jastrzębska-Więsek et al. [2016]; cited from earlier work
[5] = ip, 2.5 mg/kg, rat plasma, EMD386088 2.5 mg/kg i.p. alone
[6] = ip, 2.5 mg/kg, rat plasma, EMD386088 2.5 mg/kg i.p. jointly with imipramine (IMI) 15 mg/kg i.p.
[7] = ip, 5 mg/kg, rat plasma, EMD386088 5 mg/kg i.p. alone
[8] = rats, EMD386088 with imipramine vs alone

Cc1[nH]c2ccc(Cl)cc2c1C1=CCNCC1.Cl [EMD386088, 5-chloro-2-methyl-3-(1,2,3,6-tetrahydro-4-pyridinyl)-1H-indole hydrochloride]
Exploratory activity Ambulation X (rats [1]): 261 ± 29 and 262 ± 28 and 262 ± 35 and 263 ± 28
Exploratory activity Ambulation Y (rats [1]): 261 ± 31 and 267 ± 37 and 262 ± 23
Exploratory activity Rearings (rats [1]): 90 ± 3 and 91 ± 4 and 89 ± 4 and 92 ± 9
Exploratory activity Total distance (cm) (rats [1]): 2677 ± 232 cm and 2721 ± 196 cm and 2644 ± 220 cm and 2722 ± 145 cm
Vd/F ([2]; intraperitoneal, rats, EMD386088 2.5 mg/kg coadministered with imipramine 15 mg/kg, read-out: volume of distribution V d/F): 32.2 L/kg
AUC(0-t) [2, 5]: 36.8 ng·h/mL
CL/F [2, 5]: 1050 mL/min/kg
Cmax [2, 5]: 22.9 ng/mL
MRT [2, 5]: 1.31 h
Vd/F ([2]; ip, 2.5 mg/kg, rat plasma, EMD386088 2.5 mg/kg i.p. alone, read-out: V d/F): 102 L/kg
half-life ([2]; ip, 2.5 mg/kg, rat plasma, EMD386088 2.5 mg/kg i.p. alone, read-out: t1/2): 1.12 h
Tmax ([2]; ip, 2.5 mg/kg, rat plasma, EMD386088 2.5 mg/kg i.p. alone, read-out: t max (converted)): 0.0833 h
AUC(0-t) [2, 6]: 125 ng·h/mL
CL/F [2, 6]: 289 mL/min/kg
Cmax [2, 6]: 49 ng/mL
MRT [2, 6]: 1.55 h
Vd/F ([2]; ip, 2.5 mg/kg, rat plasma, EMD386088 2.5 mg/kg i.p. jointly with imipramine (IMI) 15 mg/kg i.p., read-out: V d/F): 32.2 L/kg
half-life ([2]; ip, 2.5 mg/kg, rat plasma, EMD386088 2.5 mg/kg i.p. jointly with imipramine (IMI) 15 mg/kg i.p., read-out: t1/2): 1.28 h
Tmax ([2]; ip, 2.5 mg/kg, rat plasma, EMD386088 2.5 mg/kg i.p. jointly with imipramine (IMI) 15 mg/kg i.p., read-out: t max (converted)): 1 h
AUC(0-t) [2, 7]: 75.5 ng·h/mL
CL/F [2, 7]: 1040 mL/min/kg
Cmax [2, 7]: 45.2 ng/mL
MRT [2, 7]: 1.3 h
Vd/F ([2]; ip, 5 mg/kg, rat plasma, EMD386088 5 mg/kg i.p. alone, read-out: V d/F): 97.1 L/kg
half-life ([2]; ip, 5 mg/kg, rat plasma, EMD386088 5 mg/kg i.p. alone, read-out: t1/2): 1.08 h
Tmax ([2]; ip, 5 mg/kg, rat plasma, EMD386088 5 mg/kg i.p. alone, read-out: t max (converted)): 0.0833 h
half-life ([2]; ip, 5 mg/kg, rats, EMD386088 alone (2.5 and 5 mg/kg) i.p., read-out: t 1/2 (terminal half-life)): 1.12 h
Tmax ([2]; ip, 5 mg/kg, rats, EMD386088 alone (2.5 and 5 mg/kg) i.p., read-out: t max (time to maximum concentration in the blood) (converted)): 0.0833 h
Vd/F ([2]; ip, rats, EMD386088 alone i.p., read-out: volume of distribution V d/F): 102 L/kg
change of area under the concentration-time curve (AUC) on coadministration with imipramine [2, 8]: increased three times
change of volume of distribution on coadministration with imipramine [2, 8]: decreased three times
antidepressant-like effect in the FST (rats [3]): exerts an antidepressant-like effect
affinity for α1-adrenoceptors (α1-adrenoceptors): no affinity
affinity for α2-adrenoceptors (α2-adrenoceptors): no affinity
affinity for β1-adrenoceptors (β1-adrenoceptors): no affinity
affinity for dopamine D3 (dopamine D3): no affinity
affinity for GABAA (GABAA): no affinity
affinity for dopamine transporter (DAT) [4]: significant affinity
